Toxic doses and inconclusive results are not listed.
Test system: L1210 leukemia ip in BDF1 mice, survival T/C
Assay: NCI In Vivo Anticancer Drug Screen. Data for tumor model L1210 Leukemia (intraperitoneal) in B6D2F1 (BDF1) mice
Settings: higher = longer survival
In short: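 Tumor was transplanted into mice, which were then dosed with test compound or vehicle alone. Survival was recorded for each group, and the treated figure was expressed relative to the control figure.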

[1] = endpoint: mean survival time, dose: 100.0 mg/kg/injection, schedule: Q04DX003 (ip), vehicle: Klucel (hydroxypropylcellulose) (HPC)
[2] = endpoint: mean survival time, dose: 200.0 mg/kg/injection, schedule: Q04DX003 (ip), vehicle: Klucel (hydroxypropylcellulose) (HPC)
[3] = endpoint: mean survival time, dose: 100.0 mg/kg/injection, schedule: Q01DX009 (ip), vehicle: saline with Tween-80
[4] = endpoint: mean survival time, dose: 200.0 mg/kg/injection, schedule: Q01DX009 (ip), vehicle: saline with Tween-80
[5] = endpoint: mean survival time, dose: 400.0 mg/kg/injection, schedule: Q01DX009 (ip), vehicle: saline with Tween-80
[6] = endpoint: mean survival time, dose: 100.0 mg/kg/injection, schedule: Q01DX009 (ip), vehicle: Klucel (hydroxypropylcellulose) (HPC)
[7] = endpoint: mean survival time, dose: 200.0 mg/kg/injection, schedule: Q01DX009 (ip), vehicle: Klucel (hydroxypropylcellulose) (HPC)
[8] = endpoint: mean survival time, dose: 400.0 mg/kg/injection, schedule: Q01DX009 (ip), vehicle: Klucel (hydroxypropylcellulose) (HPC)

With C=CCCCCCCCCC(=O)N/N=C/c1ccccc1 the T/C (endpoint: mean survival time, dose: 100.0 mg/kg/injection, schedule: Q04DX002 (ip), vehicle: Klucel (hydroxypropylcellulose) (HPC)) was 95 % of control and the T/C (endpoint: mean survival time, dose: 200.0 mg/kg/injection, schedule: Q04DX002 (ip), vehicle: Klucel (hydroxypropylcellulose) (HPC)) was 100 % of control.

With Cc1ncccc1CO the T/C (endpoint: mean survival time, dose: 100.0 mg/kg/injection, schedule: Q04DX002 (ip), vehicle: gum acacia) was 104 % of control, the T/C (endpoint: mean survival time, dose: 200.0 mg/kg/injection, schedule: Q04DX002 (ip), vehicle: gum acacia) was 90 % of control and the T/C (endpoint: mean survival time, dose: 400.0 mg/kg/injection, schedule: Q04DX002 (ip), vehicle: gum acacia) was 87 % of control.

CCOC(=O)C(=O)C(C#N)c1cccc2ccccc12 (configuration not stated) was tested, and the T/C [1] was 100 % of control and the T/C [2] was 96 % of control.

N#CCC1COc2ccccc2O1 (configuration not stated) was tested, and the T/C (endpoint: mean survival time, dose: 100.0 mg/kg/injection, schedule: Q01DX001 (ip), vehicle: carboxymethylcellulose (CMC)) was 92 % of control, the T/C (endpoint: mean survival time, dose: 200.0 mg/kg/injection, schedule: Q01DX001 (ip), vehicle: carboxymethylcellulose (CMC)) was 97 % of control and the T/C (endpoint: mean survival time, dose: 400.0 mg/kg/injection, schedule: Q01DX001 (ip), vehicle: carboxymethylcellulose (CMC)) was 100 % of control.

With CN(CCO)Cc1ccc2ccccc2c1 the T/C (endpoint: mean survival time, dose: 150.0 mg/kg/injection, schedule: Q01DX015 (ip), vehicle: saline) was 92 % of control.

For COc1ccc2c(ccc3oc([N+](=O)[O-])cc32)c1, the T/C (endpoint: median survival time, dose: 12.5 mg/kg/injection, schedule: Q01DX009 (ip), vehicle: Klucel (hydroxypropylcellulose) (HPC)) was 100 % of control, the T/C (endpoint: median survival time, dose: 25.0 mg/kg/injection, schedule: Q01DX009 (ip), vehicle: Klucel (hydroxypropylcellulose) (HPC)) was 95 % of control and the T/C (endpoint: median survival time, dose: 50.0 mg/kg/injection, schedule: Q01DX009 (ip), vehicle: Klucel (hydroxypropylcellulose) (HPC)) was 101 % of control. For the same molecule, the T/C (endpoint: median survival time, dose: 100.0 mg/kg/injection, schedule: Q01DX009 (ip), vehicle: Klucel (hydroxypropylcellulose) (HPC)) was 108 % of control and the T/C (endpoint: median survival time, dose: 200.0 mg/kg/injection, schedule: Q01DX009 (ip), vehicle: Klucel (hydroxypropylcellulose) (HPC)) was 106 % of control.

In the case of C=CCCCCCCCCC(=O)Cl, the T/C [3] is reported as 89 % of control, the T/C (endpoint: mean survival time, dose: 100.0 mg/kg/injection, schedule: Q04DX003 (ip), vehicle: saline with Tween-80) is reported as 97 % of control and the T/C [4] is reported as 88 % of control. The T/C (endpoint: mean survival time, dose: 200.0 mg/kg/injection, schedule: Q04DX003 (ip), vehicle: saline with Tween-80) was 101 % of control, the T/C [5] was 98 % of control and the T/C (endpoint: mean survival time, dose: 400.0 mg/kg/injection, schedule: Q04DX003 (ip), vehicle: saline with Tween-80) was 95 % of control.

CCOC(=O)C(OCc1ccccc1)(C(=O)N1CCCCCC1=O)C(C)C (configuration not stated) was tested, and the T/C [3] was 90 % of control, the T/C [4] was 90 % of control and the T/C [5] was 100 % of control.

For CC(Cl)CN(N=O)C(=O)NC1CCCCC1 (configuration not stated), the T/C (endpoint: mean survival time, dose: 16.0 mg/kg/injection, schedule: Q01DX001 (ip), vehicle: other) was 96 % of control, the T/C (endpoint: mean survival time, dose: 31.0 mg/kg/injection, schedule: Q01DX001 (ip), vehicle: other) was 104 % of control and the T/C (endpoint: mean survival time, dose: 62.0 mg/kg/injection, schedule: Q01DX001 (ip), vehicle: other) was 102 % of control. The T/C (endpoint: mean survival time, dose: 125.0 mg/kg/injection, schedule: Q01DX001 (ip), vehicle: other) was 104 % of control, the T/C (endpoint: mean survival time, dose: 187.0 mg/kg/injection, schedule: Q01DX001 (ip), vehicle: other) was 117 % of control and the T/C (endpoint: mean survival time, dose: 250.0 mg/kg/injection, schedule: Q01DX001 (ip), vehicle: other) was 94 % of control. The T/C (endpoint: mean survival time, dose: 375.0 mg/kg/injection, schedule: Q01DX001 (ip), vehicle: other) was 122 % of control, the T/C (endpoint: mean survival time, dose: 500.0 mg/kg/injection, schedule: Q01DX001 (ip), vehicle: other) was 167 % of control and the T/C (endpoint: mean survival time, dose: 750.0 mg/kg/injection, schedule: Q01DX001 (ip), vehicle: other) was 187 % of control.

With CCOC(=O)CC(=O)c1ccccc1F the T/C [6] was 97 % of control, the T/C [1] was 102 % of control and the T/C [7] was 103 % of control. The T/C [2] was 103 % of control, the T/C [8] was 93 % of control and the T/C (endpoint: mean survival time, dose: 400.0 mg/kg/injection, schedule: Q04DX003 (ip), vehicle: Klucel (hydroxypropylcellulose) (HPC)) was 100 % of control.

Nc1ccccc1SC(CC(=O)c1ccccc1)c1ccc([N+](=O)[O-])cc1 (configuration not stated) was tested, and the T/C (endpoint: mean survival time, dose: 100.0 mg/kg/injection, schedule: Q01DX005 (ip), vehicle: Klucel (hydroxypropylcellulose) (HPC)) was 101 % of control, the T/C [6] was 97 % of control and the T/C [7] was 91 % of control. For the same molecule, the T/C (endpoint: mean survival time, dose: 400.0 mg/kg/injection, schedule: Q01DX005 (ip), vehicle: Klucel (hydroxypropylcellulose) (HPC)) was 86 % of control and the T/C [8] was 97 % of control.

In the case of COc1ccc(Nc2cc(=S)nc(N)[nH]2)cc1, the T/C (endpoint: mean survival time, dose: 100.0 mg/kg/injection, schedule: Q01DX Z (ip), vehicle: methylcellulose (MC)) is reported as 100 % of control and the T/C (endpoint: mean survival time, dose: 200.0 mg/kg/injection, schedule: Q01DX Z (ip), vehicle: methylcellulose (MC)) is reported as 115 % of control.

Source: PubChem BioAssay AID248 (DTP/NCI, 2004)
